Measured values reported in patent publication US20230083015A1, “SMALL MOLECULE DEGRADERS OF STAT3” (THE REGENTS OF THE UNIVERSITY OF MICHIGAN, priority 2019, published 2023).
Like-named read-outs stand apart in the source and are kept apart here.

How the values were obtained:
STAT3 = STAT3 (Homo sapiens, UniProt P40763); assay: Estimated DC50 for STAT3 degradation in MOLM-16 cells (immunoblotting); assay type: cell-based; set-up: In vitro cultured cells or xenograft tumors were lysed; endogenous in cells; host or cells: MOLM-16
Description: (§1) FIG. 62 is a series of four images showing the fluorescent immunoblotting analysis of STAT1 and STAT3 protein in Molm-16 cells after treatment for 4 h with Cpd. Nos. 331, 296, 361, 362, 363, 364, 365, 366, and 367 at the concentrations indicated.
(§2) In vitro cultured cells or xenograft tumors were lysed 1× Cell Lysis Buffer (Cell Signaling Technology, #9803), resolved by SDS-PAGE NuPAGE gel (Thermo Fisher Scientific), and transferred to a PVDF membrane (Bio Rad). For chemiluminescence immunoblotting, membranes were blocked for 1 h using 5% Blotting-Grade Blocker (#1706404, Bio Rad) in 1× Tris-buffered saline with Tween 20 (TBST, Pierce). Antibodies used were: rabbit mAbs for STAT3 (Cell Signaling Technology, #4368, #12640) and p-STAT3 (Y705) (Cell Signaling Technology, #9245, #52075). HRP conjugated goat anti-rabbit IgG (H+L) (#A27036) secondary antibodies was from Thermo Fisher Scientific. GAPDH (Santa Cruz Technology, sc-47724HRP) and actin (Santa Cruz Technology, sc-8432HRP, sc-47778HRP) were loading controls. For fluorescent immunoblotting, membranes were blocked using Odyssey TBS Blocker Buffer (LI-COR). IRDye 680RD and 800CW Dye-labeled secondary antibodies (LI-COR) were used. The washed membranes were scanned using Odyssey CLx imager (LI-COR). The intensity of Western blot signaling was quantitated using the Odyssey software.
(§3) The estimated DC50 in MOLM-16 cells of representative Compounds of the Disclosure against STAT3 and STAT1 is provide in Table 5.

STAT1 = target: T1, STAT1 (Homo sapiens, UniProt P42224); assay: Estimated DC50 for STAT1 degradation in MOLM-16 cells (immunoblotting); assay type: cell-based
T1 construct: In vitro cultured cells or xenograft tumors were lysed; endogenous in cells; host or cells: MOLM-16
T1 sequence (P42224 1-750): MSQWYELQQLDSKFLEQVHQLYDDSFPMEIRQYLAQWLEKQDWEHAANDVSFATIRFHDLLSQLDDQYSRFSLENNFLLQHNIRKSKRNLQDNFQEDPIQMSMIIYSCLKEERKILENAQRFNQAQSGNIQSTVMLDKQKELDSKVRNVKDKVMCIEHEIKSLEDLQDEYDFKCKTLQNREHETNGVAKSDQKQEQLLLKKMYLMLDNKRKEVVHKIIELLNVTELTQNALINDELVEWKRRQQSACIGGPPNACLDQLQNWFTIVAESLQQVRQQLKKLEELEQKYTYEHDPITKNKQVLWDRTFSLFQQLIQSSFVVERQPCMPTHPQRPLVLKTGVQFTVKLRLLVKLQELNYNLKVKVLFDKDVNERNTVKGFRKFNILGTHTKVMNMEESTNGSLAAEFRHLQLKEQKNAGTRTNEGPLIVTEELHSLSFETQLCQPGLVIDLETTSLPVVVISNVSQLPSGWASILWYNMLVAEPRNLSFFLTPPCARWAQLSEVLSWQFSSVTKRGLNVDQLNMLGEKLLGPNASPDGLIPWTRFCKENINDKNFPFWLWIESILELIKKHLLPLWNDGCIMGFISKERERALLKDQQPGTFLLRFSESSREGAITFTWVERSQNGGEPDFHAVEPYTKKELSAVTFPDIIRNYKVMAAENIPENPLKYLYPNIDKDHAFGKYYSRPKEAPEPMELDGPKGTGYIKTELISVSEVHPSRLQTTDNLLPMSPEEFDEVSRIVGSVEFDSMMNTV
Description: as §1, §2, §3

[1] = MOLM-16, 4 h; read-out: Estimated DC50 STAT3
[2] = MOLM-16, 4 h; read-out: Estimated DC50 STAT1

STAT3, sequence (P40763 whole entry): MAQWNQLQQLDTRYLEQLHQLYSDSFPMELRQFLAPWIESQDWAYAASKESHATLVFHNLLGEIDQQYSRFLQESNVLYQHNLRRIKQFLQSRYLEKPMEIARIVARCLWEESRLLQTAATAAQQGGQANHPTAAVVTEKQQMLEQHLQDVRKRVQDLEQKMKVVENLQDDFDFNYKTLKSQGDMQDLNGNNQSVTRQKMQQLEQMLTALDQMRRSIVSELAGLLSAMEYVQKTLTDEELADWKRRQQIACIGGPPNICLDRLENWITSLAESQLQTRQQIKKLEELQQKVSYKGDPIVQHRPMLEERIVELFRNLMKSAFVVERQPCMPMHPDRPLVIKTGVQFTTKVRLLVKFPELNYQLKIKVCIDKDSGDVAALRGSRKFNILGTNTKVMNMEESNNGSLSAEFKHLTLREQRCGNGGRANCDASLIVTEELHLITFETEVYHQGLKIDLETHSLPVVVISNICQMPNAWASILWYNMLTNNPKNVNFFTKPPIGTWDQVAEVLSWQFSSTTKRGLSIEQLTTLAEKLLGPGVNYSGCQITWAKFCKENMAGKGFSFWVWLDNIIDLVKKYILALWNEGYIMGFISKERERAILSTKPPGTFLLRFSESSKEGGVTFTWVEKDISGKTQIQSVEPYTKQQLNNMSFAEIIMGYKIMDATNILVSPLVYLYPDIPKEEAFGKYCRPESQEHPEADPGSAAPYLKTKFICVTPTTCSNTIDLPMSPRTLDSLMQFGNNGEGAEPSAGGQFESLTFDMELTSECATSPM

Structure (SMILES) | DC50 (STAT3; [1]) [nM] | DC50 (STAT1; read-out: Estimated DC50 STAT1; MOLM-16, 4 h) [nM] | DC50 (STAT3; read-out: Estimated DC50 STAT3; MOLM-16, 4 h) [nM] | DC50 (STAT1; [2]) [nM]
NC(=O)CC[C@H](NC(=O)[C@@H]1CC[C@@H]2CCN(C(=O)CCCCCC#Cc3cccc4c3CN(C3CCC(=O)NC3=O)C4=O)C[C@H](NC(=O)c3cc4cc(C(F)(F)P(=O)(O)O)ccc4s3)C(=O)N21)C(=O)NC(Cc1ccccc1)Cc1ccccc1 (stereo partly drawn) [Cpd. No. 349, ((2-(((5S,8S,10aR)-8-(((S)-5-amino-1-((1,3-diphenylpropan-2-yl)amino)-1,5-dioxopentan-2-yl)carbamoyl)-3-(8-(2-(2,6-dioxopiperidin-3-yl)-1-oxoisoindolin-4-yl)oct-7-ynoyl)-6-oxodecahydropyrrolo[1,2-a][1,5]diazocin-5-yl)carbamoyl)benzo[b]thiophen-5-yl)difluoromethyl) phosphonic acid] | 200 | – | – | –
CCN1CC[C@H]2CC[C@@H](C(=O)N[C@@H](CCC(N)=O)C(=O)N[C@@H](Cc3ccc(S(=O)(=O)c4ccccc4)cc3)C(=O)N3CCC(CCC#Cc4cccc5c4CN(C4CCC(=O)NC4=O)C5=O)CC3)N2C(=O)[C@@H](NC(=O)c2cc3cc(C(F)(F)P(=O)(O)O)ccc3s2)C1 (some centres unmarked) [Cpd. No. 352] | – | 250 | < 250 | –
CCN1CC[C@H]2CC[C@@H](C(=O)N[C@@H](CCC(N)=O)C(=O)N[C@@H](Cc3ccc(S(=O)(=O)C4CC4)cc3)C(=O)N3CCC(CCC#Cc4cccc5c4CN(C4CCC(=O)NC4=O)C5=O)CC3)N2C(=O)[C@@H](NC(=O)c2cc3cc(C(F)(F)P(=O)(O)O)ccc3s2)C1 (stereo partly drawn) [Cpd. No. 353, ((2-(((5S,8S,10aR)-8-(((2S)-5-amino-1-(((2S)-3-(4-(cyclopropylsulfonyl)phenyl)-1-(4-(4-(2-(2,6-dioxopiperidin-3-yl)-1-oxoisoindolin-4-yl)but-3-yn-1-yl)piperidin-1-yl)-1-oxopropan-2-yl)amino)-1,5-dioxopentan-2-yl)carbamoyl)-3-ethyl-6-oxodecahydropyrrolo[1,2-a][1,5]diazocin-5-yl)carbamoyl)benzo[b]thiophen-5-yl)difluoromethyl)phosphonic Acid] | < 250 | – | – | 500
CCN1CC[C@H]2CC[C@@H](C(=O)N[C@@H](CCC(N)=O)C(=O)N[C@@H](Cc3ccc(NS(=O)(=O)c4ccc(C)cc4)cc3)C(=O)N3CCC(CCC#Cc4cccc5c4CN(C4CCC(=O)NC4=O)C5=O)CC3)N2C(=O)[C@@H](NC(=O)c2cc3cc(C(F)(F)P(=O)(O)O)ccc3s2)C1 (stereo partly drawn) [Cpd. No. 354, ((2-(((5S,8S,10aR)-8-(((2S)-5-amino-1-(((2S)-1-(4-(4-(2-(2,6-dioxopiperidin-3-yl)-1-oxoisoindolin-4-yl)but-3-yn-1-yl)piperidin-1-yl)-3-(4-((4-methylphenyl)sulfonamido)phenyl)-1-oxopropan-2-yl)amino)-1,5-dioxopentan-2-yl)carbamoyl)-3-ethyl-6-oxodecahydropyrrolo[1,2-a][1,5]diazocin-5-yl)carbamoyl)benzo[b]thiophen-5-yl)difluoromethyl)phosphonic Acid] | < 250 | – | – | 250
CCN1CC[C@H]2CC[C@@H](C(=O)N[C@@H](CCC(N)=O)C(=O)N[C@@H](Cc3ccc(NS(=O)(=O)c4ccc(C5CCCCC5)cc4)cc3)C(=O)N3CCC(CCC#Cc4cccc5c4CN(C4CCC(=O)NC4=O)C5=O)CC3)N2C(=O)[C@@H](NC(=O)c2cc3cc(C(F)(F)P(=O)(O)O)ccc3s2)C1 (stereo partly drawn) [Cpd. No. 357, ((2-(((5S,8S,10aR)-8-(((2S)-5-amino-1-(((2S)-3-(4-((4-cyclohexylphenyl)sulfonamido)phenyl)-1-(4-(4-(2-(2,6-dioxopiperidin-3-yl)-1-oxoisoindolin-4-yl)but-3-yn-1-yl)piperidin-1-yl)-1-oxopropan-2-yl)amino)-1,5-dioxopentan-2-yl)carbamoyl)-3-ethyl-6-oxodecahydropyrrolo[1,2-a][1,5]diazocin-5-yl)carbamoyl)benzo[b]thiophen-5-yl)difluoromethyl) phosphonic acid] | 500 | – | – | > 1000
CCN1CC[C@H]2CC[C@@H](C(=O)N[C@@H](CCC(N)=O)C(=O)N[C@@H](Cc3ccc(C(=O)NC4CCOCC4)cc3)C(=O)N3CCC(CCC#Cc4cccc5c4CN(C4CCC(=O)NC4=O)C5=O)CC3)N2C(=O)[C@@H](NC(=O)c2cc3cc(C(F)(F)P(=O)(O)O)ccc3s2)C1 (stereo partly drawn) [Cpd. No. 359, ((2-(((5S,8S,10aR)-8-(((2S)-5-amino-1-(((2S)-1-(4-(4-(2-(2,6-dioxopiperidin-3-yl)-1-oxoisoindolin-4-yl)but-3-yn-1-yl)piperidin-1-yl)-1-oxo-3-(4-((tetrahydro-2H-pyran-4-yl)carbamoyl)phenyl)propan-2-yl)amino)-1,5-dioxopentan-2-yl)carbamoyl)-3-ethyl-6-oxodecahydropyrrolo[1,2-a][1,5]diazocin-5-yl)carbamoyl)benzo[b]thiophen-5-yl)difluoromethyl)phosphonic Acid] | 1000 | – | – | > 1000
CCN1CC[C@H]2CC[C@@H](C(=O)N[C@@H](CCC(N)=O)C(=O)N[C@@H](Cc3ccc(C(=O)NCC4CCN(C)CC4)cc3)C(=O)N3CCC(CCC#Cc4cccc5c4CN(C4CCC(=O)NC4=O)C5=O)CC3)N2C(=O)[C@@H](NC(=O)c2cc3cc(C(F)(F)P(=O)(O)O)ccc3s2)C1 (stereo partly drawn) [Cpd. No. 360, ((2-(((5S,8S,10aR)-8-(((2S)-5-amino-1-(((2S)-1-(4-(4-(2-(2,6-dioxopiperidin-3-yl)-1-oxoisoindolin-4-yl)but-3-yn-1-yl)piperidin-1-yl)-3-(4-(((1-methylpiperidin-4-yl)methyl)carbamoyl)phenyl)-1-oxopropan-2-yl)amino)-1,5-dioxopentan-2-yl)carbamoyl)-3-ethyl-6-oxodecahydropyrrolo [1,2-a][1,5]diazocin-5-yl)carbamoyl)benzo [b]thiophen-5-yl)difluoromethyl) phosphonic acid] | > 1000 | – | – | > 1000
COC(=O)N1CC[C@H]2CC[C@@H](C(=O)N[C@@H](CCC(N)=O)C(=O)N[C@@H](Cc3ccc(C(C)(C)C)cc3)C(=O)N3CCC(CCC#Cc4cccc5c4CN(C4CCC(=O)NC4=O)C5=O)CC3)N2C(=O)[C@@H](NC(=O)c2cc3cc(C(F)(F)P(=O)(O)O)ccc3s2)C1 (stereo partly drawn) [Cpd. No. 361, ((2-(((5S,8S,10aR)-8-(((2S)-5-amino-1-(((2S)-3-(4-(tert-butyl)phenyl)-1-(4-(4-(2-(2,6-dioxopiperidin-3-yl)-1-oxoisoindolin-4-yl)but-3-yn-1-yl)piperidin-1-yl)-1-oxopropan-2-yl)amino)-1,5-dioxopentan-2-yl)carbamoyl)-3-(methoxycarbonyl)-6-oxodecahydropyrrolo[1,2-a][1,5]diazocin-5-yl)carbamoyl)benzo[b]thiophen-5-yl)difluoromethyl) phosphonic acid] | < 250 | – | – | 250
CC(C)(C)c1ccc(C[C@H](NC(=O)[C@H](CCC(N)=O)NC(=O)[C@@H]2CC[C@@H]3CCN(CC(F)F)C[C@H](NC(=O)c4cc5cc(C(F)(F)P(=O)(O)O)ccc5s4)C(=O)N32)C(=O)N2CCC(CCC#Cc3cccc4c3CN(C3CCC(=O)NC3=O)C4=O)CC2)cc1 (stereo partly drawn) [Cpd. No. 362, ((2-(((5S,8S,10aR)-8-(((2S)-5-amino-1-(((2S)-3-(4-(tert-butyl)phenyl)-1-(4-(4-(2-(2,6-dioxopiperidin-3-yl)-1-oxoisoindolin-4-yl)but-3-yn-1-yl)piperidin-1-yl)-1-oxopropan-2-yl)amino)-1,5-dioxopentan-2-yl)carbamoyl)-3-(2,2-difluoroethyl)-6-oxodecahydropyrrolo[1,2-a][1,5]diazocin-5-yl)carbamoyl)benzo[b]thiophen-5-yl)difluoromethyl) phosphonic acid] | < 250 | – | – | < 250
